Earlier results in patent US8022220B2, “Process for production of piperidine derivatives” (Albany Molecular Research, Inc., priority 1995, dated 2011).

System: delayed rectifier potassium current
Details: concentrations up to 5 μM; isolated feline ventricular myocytes

CC(C)(C(=O)O)c1ccc(C(O)CCCN2CCC(C(O)(c3ccccc3)c3ccccc3)CC2)cc1 (stereo not drawn) [terfenadine carboxylic acid metabolite, 4-[4-[4-(hydroxydiphenylmethyl)-1-piperidinyl]-1-hydroxybutyl]-α-α-dimethylphenylacetic acid]
effect on the potassium current: no significant effect
